Values of other authors, collected in patent US20070160648A1, “Methods for treating otic disorders” (pSivida Inc., priority 2002, published 2007).

For `[H]/N=C(/N)N[C@H]1[C@H](O)[C@@H](O)[C@H](O[C@@H]2O[C@@H](C)[C@](O)(C=O)[C@H]2O[C@@H]2O[C@@H](CO)[C@H](O)[C@@H](O)[C@@H]2NC)[C@@H](N/C(N)=N\[H])[C@@H]1O` [streptomycin], the “patients displaying some vestibular impairment” value (one gram of streptomycin daily for 60 to 120 days) is listed as 25% and the “incidence of vestibular impairment” value (two grams per day) is listed as 75%.
